Source: article PMC11676667, “Pharmacokinetics of Oral Cannabinoid Δ8-Tetrahydrocannabivarin and Its Main Metabolites in Healthy Participants” (Pharmaceuticals, 2024)
Where two headings read alike, the source gives them in different places.

Experiment: Plasma pharmacokinetics after single oral dose of Δ8-THCV in MCT oil (LC-MS/MS, non-compartmental analysis)
Type: in vivo, human
Parameters: Clast (last quantifiable concentration): unit not given here
Conditions: for Clast (last quantifiable concentration) / tlast (time to last quantifiable concentration) / concentration at 0.5 h / concentration at 1 h / concentration at 2 h / concentration at 4 h / concentration at 6 h / concentration at 8 h / AUC(0-t) / Cmax / MRT / Tmax: plasma; for plasma concentration: Predose; for concentration at 0.5 h / concentration at 1 h / concentration at 2 h / concentration at 4 h / concentration at 6 h / concentration at 8 h / AUC(0-t) / Cmax / MRT / Tmax: human; for concentration at 0.5 h / concentration at 1 h / concentration at 2 h / concentration at 4 h / concentration at 6 h / concentration at 8 h: oral; for AUC(0-t) / Cmax / MRT / Tmax: po; for MRT: read-out: MRT (mean residence time); for Tmax: read-out: tmax
Protocol: The study was a two-phase, dose-ranging, placebo-controlled trial in 21 healthy participants to assess the safety, tolerability, PK, and PD of an oral formulation of Δ8-THCV. A detailed description of the study was published elsewhere. The study product was a medium-chain triglyceride (MCT) oil oral formulation of Δ8-THCV at a concentration of 50 mg/mL. […] MCT oil was used as placebo.
Twenty-one participants were enrolled in the clinical study and plasma samples from 15 participants were sent to our laboratory for pharmacokinetic evaluation. Of these, 3 participants were enrolled in Phase 1, an unblinded, placebo-controlled, single ascending dose design and 12 were enrolled in Phase 2, a double-blind, randomized, placebo-controlled, within-participant crossover design. At each study session, participants received one of the following oral doses: placebo, 12.5 mg, 25 mg, 50 mg, 100 mg, and 200 mg of the aforementioned Δ8-THCV formulation in MCT. Study visits were separated by a washout period of a minimum of one week and maximum of 28 days. Participants entered the research facility the night before the session and received the study product in the morning after a standardized high-fat, high-calorie breakfast. PK blood samples included in this analysis were collected prior to dosing and 0.5, 1, 2, 4, 6, and 8 h after dose. Immediately following collection into K2EDTA tubes, blood samples were placed on wet ice, centrifuged, and plasma was immediately frozen at −80 °C until shipment to the bioanalytical laboratory (iC42 Clinical Research and Development, University of Colorado, Aurora, CO, USA) on dry ice.
Plasma samples were analyzed using a validated high-performance liquid chromatography–tandem mass spectrometry (LC-MS/MS) assay. The assay included Δ8-THCV and its main metabolites 11-OH-Δ8-THCV and Δ8-THCV-COOH, Δ9-THCV and its main metabolite Δ9-THCV-COOH, and Δ9-THC and Δ8-THC as well as their main metabolites (Figure 3). The complete list of analyzed compounds and a summary of the key performance parameters of the assay are presented in Appendix A and Table A1 and Table A2. […] For the PK analysis, concentrations below the lower limit of quantification were set to 0 ng/mL. PK parameters were calculated using non-compartmental analysis (Phoenix WinNonlin version 8.4., Certara, Princeton, NJ, USA). Statistical analysis was carried out using GraphPad Prism (version 10, Boston, MA, USA).

[1] = 100 mg single oral Δ8-THCV in MCT oil, Mean (±SD)
[2] = 100 mg single oral Δ8-THCV in MCT oil, Median (Range)
[3] = 200 mg single oral Δ8-THCV in MCT oil, Mean (±SD)
[4] = 200 mg single oral Δ8-THCV in MCT oil, Median (Range)
[5] = 12.5 mg, 12.5 mg Δ8-THCV dose, Mean (SD, %CV)
[6] = 12.5 mg, 12.5 mg Δ8-THCV dose, Median (IQ Range)
[7] = 25 mg, 25 mg Δ8-THCV dose, Mean (SD, %CV)
[8] = 25 mg, 25 mg Δ8-THCV dose, Median (IQ Range)
[9] = 50 mg, 50 mg Δ8-THCV dose, Mean (SD, %CV)
[10] = 50 mg, 50 mg Δ8-THCV dose, Median (IQ Range)
[11] = 100 mg, 100 mg Δ8-THCV dose, Mean (SD, %CV)
[12] = 100 mg, 100 mg Δ8-THCV dose, Median (IQ Range)
[13] = 200 mg, 200 mg Δ8-THCV dose, Mean (SD, %CV)
[14] = 200 mg, 200 mg Δ8-THCV dose, Median (IQ Range)
[15] = 100 mg, 100 mg single oral Δ8-THCV in MCT oil, Mean (±SD)
[16] = 100 mg, 100 mg single oral Δ8-THCV in MCT oil, Median (Range)
[17] = 200 mg, 200 mg single oral Δ8-THCV in MCT oil, Mean (±SD)
[18] = 200 mg, 200 mg single oral Δ8-THCV in MCT oil, Median (Range)

In the case of CCCCCc1cc(O)c2c(c1)OC(C)(C)[C@@H]1CC=C(C(=O)O)CC21 (single isomer, unassigned; (+)) [Δ8-THC-COOH, (+)-11-nor-Δ8-THC-9-carboxylic acid], the “Clast (last quantifiable concentration)” value [1] is reported as 1.3 (±0.2), the “tlast (time to last quantifiable concentration)” value (shortened to “tlast”) [1] is reported as 5.8 (±1.3) and the “Clast (last quantifiable concentration)” value [2] is reported as 1.3 (1–1.7). For the same compound, the “tlast” value [2] was 6 (4–8), the “Clast (last quantifiable concentration)” value [3] was 1.9 (±0.6) and the “tlast” value [3] was 7.5 (±1.2). For the same compound, the “Clast (last quantifiable concentration)” value [4] was 1.8 (1.1–2.8), the “tlast” value [4] was 8 (4–8) and the plasma concentration (12.5 mg Δ8-THCV dose, Mean (SD, %CV)) was 0 (±0, --) ng/mL. The plasma concentration (12.5 mg Δ8-THCV dose, Median (IQ Range)) was 0 (0–0) ng/mL, the plasma concentration (25 mg Δ8-THCV dose, Mean (SD, %CV)) was 0 (±0, --) ng/mL and the plasma concentration (25 mg Δ8-THCV dose, Median (IQ Range)) was 0 (0–0) ng/mL. The plasma concentration (50 mg Δ8-THCV dose, Mean (SD, %CV)) was 0 (±0, --) ng/mL, the plasma concentration (50 mg Δ8-THCV dose, Median (IQ Range)) was 0 (0–0) ng/mL and the plasma concentration (100 mg Δ8-THCV dose, Mean (SD, %CV)) was 0 (±0, --) ng/mL. The plasma concentration (100 mg Δ8-THCV dose, Median (IQ Range)) was 0 (0–0) ng/mL, the plasma concentration (200 mg Δ8-THCV dose, Mean (SD, %CV)) was 0 (±0, --) ng/mL and the plasma concentration (200 mg Δ8-THCV dose, Median (IQ Range)) was 0 (0–0) ng/mL. It also gave a concentration at 0.5 h [5] of 0 ng/mL, a concentration at 0.5 h [6] of 0 ng/mL and a concentration at 1 h [5] of 0 ng/mL. The concentration at 1 h [6] was 0 ng/mL, the concentration at 2 h [5] was 0 ng/mL and the concentration at 2 h [6] was 0 ng/mL. It also gave a concentration at 4 h [5] of 0 ng/mL, a concentration at 4 h [6] of 0 ng/mL and a concentration at 6 h [5] of 0 ng/mL. It also gave a concentration at 6 h [6] of 0 ng/mL, a concentration at 8 h [5] of 0 ng/mL and a concentration at 8 h [6] of 0 ng/mL. For the same compound, the concentration at 0.5 h [7] was 0 ng/mL, the concentration at 0.5 h [8] was 0 ng/mL and the concentration at 1 h [7] was 0 ng/mL. The concentration at 1 h [8] was 0 ng/mL, the concentration at 2 h [7] was 0 ng/mL and the concentration at 2 h [8] was 0 ng/mL. It also gave a concentration at 4 h [7] of 0 ng/mL, a concentration at 4 h [8] of 0 ng/mL and a concentration at 6 h [7] of 0 ng/mL. It also gave a concentration at 6 h [8] of 0 ng/mL, a concentration at 8 h [7] of 0 ng/mL and a concentration at 8 h [8] of 0 ng/mL. It also gave a concentration at 0.5 h [9] of 0 ng/mL, a concentration at 0.5 h [10] of 0 ng/mL and a concentration at 1 h [9] of 0 ng/mL. The concentration at 1 h [10] was 0 ng/mL, the concentration at 2 h [9] was 0 ng/mL and the concentration at 2 h [10] was 0 ng/mL. It also gave a concentration at 4 h [9] of 0 ng/mL, a concentration at 4 h [10] of 0 ng/mL and a concentration at 6 h [9] of 0 ng/mL. It also gave a concentration at 6 h [10] of 0 ng/mL, a concentration at 8 h [9] of 0 ng/mL and a concentration at 8 h [10] of 0 ng/mL. The concentration at 0.5 h [11] was 0 ng/mL, the concentration at 0.5 h [12] was 0 ng/mL and the concentration at 1 h [11] was 0 ng/mL. For the same compound, the concentration at 1 h [12] was 0 ng/mL, the concentration at 2 h [11] was 0 ng/mL and the concentration at 2 h [12] was 0 ng/mL. The concentration at 4 h [11] was 0.4 ng/mL, the concentration at 4 h [12] was 0 ng/mL and the concentration at 6 h [11] was 0.6 ng/mL. The concentration at 6 h [12] was 0 ng/mL, the concentration at 8 h [11] was 0.1 ng/mL and the concentration at 8 h [12] was 0 ng/mL. It also gave a concentration at 0.5 h [13] of 0 ng/mL, a concentration at 0.5 h [14] of 0 ng/mL and a concentration at 1 h [13] of 0 ng/mL. The concentration at 1 h [14] was 0 ng/mL, the concentration at 2 h [13] was 0.4 ng/mL and the concentration at 2 h [14] was 0 ng/mL. It also gave a concentration at 4 h [13] of 1.3 ng/mL, a concentration at 4 h [14] of 1.7 ng/mL and a concentration at 6 h [13] of 1.8 ng/mL. For the same compound, the concentration at 6 h [14] was 2 ng/mL, the concentration at 8 h [13] was 1.6 ng/mL and the concentration at 8 h [14] was 1.6 ng/mL. It also gave an AUC(0-t) [15] of 2.4 ng·h/mL, a Cmax [15] of 1.4 ng/mL and an AUC(0-t) [16] of 1.6 ng·h/mL. The Cmax [16] was 1.4 ng/mL, the MRT [15] was 5.2 h and the Tmax [15] was 5 h. It also gave an MRT [16] of 5.3 h, a Tmax [16] of 5 h and an AUC(0-t) [17] of 8.1 ng·h/mL. It also gave a Cmax [17] of 2.4 ng/mL, an AUC(0-t) [18] of 9.6 ng·h/mL and a Cmax [18] of 2.5 ng/mL. It also gave an MRT [17] of 5.7 h, a Tmax [17] of 6.1 h and an MRT [18] of 5.8 h. For the same compound, the Tmax [18] was 6 h, the “number of positive plasma samples” value (of 504 plasma samples from 15 participants after oral Δ8-THCV) was 49 and the “concentration in representative plasma sample” value (one subject after oral Δ8-THCV in MCT oil, Figure A1) was 1.4 ng/mL.
